# Source: patent US10130096B2, “Method for protecting useful plants or plant propagation material” (SYNGENTA PARTICIPATIONS AG, priority 2011, dated 2018)
# Assays:
# [1] = tested on: Botryotinia fuckeliana (Botrytis cinerea); experiment: Botryotinia fuckeliana liquid culture growth inhibition; type: cell-based; conditions: photometric, 3-4 days after application, read-out: control on Botryotinia fuckeliana
# Procedure: (§1) Conidia of the fungus from cryogenic storage are directly mixed into nutrient broth (Vogels broth). After placing a (DMSO) solution of test compound into a microtiter plate (96-well format), the nutrient broth containing the fungal spores is added.
# [2] = tested on: Monographella nivalis (Microdochium nivale); experiment: Monographella nivalis liquid culture growth inhibition; type: cell-based; conditions: photometric, 4-5 days after application, read-out: control on Monographella nivalis
# Procedure: as §1, with “(PDB potato dextrose” for “(Vogels”, “added. The test plates are incubated at 24° C. and the inhibition of growth is determined photometrically 4-5 days after application.” for “added.”
# [3] = tested on: Thanatephorus cucumeris (Rhizoctonia solani); experiment: Thanatephorus cucumeris liquid culture growth inhibition; type: cell-based; conditions: photometric, 3-4 days after application, read-out: control on Thanatephorus cucumeris
# Procedure: Mycelia fragments of a newly grown liquid culture of the fungus are directly mixed into nutrient broth (PDB potato dextrose broth). After placing a (DMSO) solution of the test compounds into a microtiter plate (96-well format), the nutrient broth containing the fungal material is added. The test plates are incubated at 24° C. and the inhibition of growth is determined photometrically 3-4 days after application.
# [4] = tested on: Glomerella lagenarium (Colletotrichum lagenarium); experiment: Glomerella lagenarium liquid culture growth inhibition; type: cell-based; conditions: Colletotrichum orbiculare, photometric, 3-4 days after application, read-out: control on Glomerella lagenarium
# Procedure: (§2) Conidia of the fungus from cryogenic storage are directly mixed into nutrient broth (PDB potato dextrose broth). After placing a (DMSO) solution of test compound into a microtiter plate (96-well format), the nutrient broth containing the fungal spores is added.
# Fusarium culmorum = Fusarium culmorum liquid culture growth inhibition; type: cell-based; conditions: photometric, 3-4 days after application, read-out: control on Fusarium culmorum
# Procedure: Conidia of the fungus from cryogenic storage are directly mixed into nutrient broth (PDB potato dextrose broth). After placing a (DMSO) solution of test compound into a microtiter plate (96-well format), the nutrient broth containing the fungal spores is added. The test plates are incubated at 24° C. and the inhibition of growth is determined photometrically 3-4 days after application.
# [5] = tested on: Mycosphaerella arachidis (Cercospora arachidicola); experiment: Mycosphaerella arachidis liquid culture growth inhibition; type: cell-based; conditions: photometric, 4-5 days after application, read-out: control on Mycosphaerella arachidis
# Procedure: as §2
# Pythium ultimum [6] = experiment: Pythium ultimum liquid culture growth inhibition; type: cell-based; conditions: Globisporangium ultimum, photometric, 2-3 days after application, read-out: control on Pythium ultimum
# Procedure: as §2, with “Mycelia fragments and oospores of a newly grown liquid culture” for “Conidia”, “fungus” for “fungus from cryogenic storage”, “mycelia/spore mixture” for “spores”
# Alternaria solani = Alternaria solani on tomato plants; type: in vivo; conditions: 4-week old tomato plants cv. Roter Gnom, spray, inoculated two days after application
# Procedure: 4-week old tomato plants cv. Roter Gnom are sprayed in a spray chamber with the formulated test compound diluted in water. The test plants are inoculated by spraying them with a spore suspension two days after application. The inoculated test plants are incubated at 22/18° C. (day/night) and 95% rh in a greenhouse and the percentage leaf area covered by disease is assessed when an appropriate level of disease appears on untreated check plants (5-7 days after application).
# Pythium ultimum [7] = experiment: Pythium ultimum on Cotton/Pouch; type: in vivo; conditions: Globisporangium ultimum, 168 h, cotton, pouch, 7 days at 17° C.
# Text: A spore/mycelium suspension is pipetted into the pouch simultaneously.
# [8] = tested on: Pseudoperonospora cubensis; experiment: Pseudoperonospora cubensis on Cucumber/Pouch; type: in vivo; conditions: 60 ppm; cucumber, pouch, inoculated 8 days after sowing, 7 days incubation
# Text: 8 days after sowing cucumber plants were inoculated by spraying a spore suspension on the test plants.
# Pythium ultimum [9] = experiment: Example B-5: seed treatment against Pythium ultimum on cotton; type: in vivo; conditions: Globisporangium ultimum, rate of 200 g/100 kg seeds, infested soil, number of germinated, healthy plants
# Procedure: The trial is kept for 1 week in a growth room at 20° C. and darkness. After this period the trial is transferred to a greenhouse where a temperature of 21° C. and a 14 h light period is provided until the trial is finished. The following assessments are made: number of germinated, healthy plants. Each number is determined for 150 seeds per treatment (3 replicates a 50 seeds).
# Puccinia recondita = Puccinia recondita on Wheat/Pouch; type: in vivo; conditions: 20 ppm; wheat, pouch, inoculated 8 days after sowing, 8 days incubation
# Procedure: 8 days after sowing wheat plants were inoculated by spraying a spore suspension on the test plants. After an incubation period of 8 days at 24° C./22° C.
compound,measurement,setting,value
"NCCCOB1OCc2cc(Cl)ccc21 [Compound 5, 3-(5-Chloro-3H-benzo[c][1,2]oxaborol-1-yloxy)-propylamine]",inhibition of growth at 200 ppm,[1],≥ 80%
same,inhibition of growth at 200 ppm,[2],≥ 80%
same,inhibition of growth at 200 ppm,[3],≥ 80%
same,inhibition of growth at 200 ppm,[4],≥ 80%
same,inhibition of growth at 200 ppm,Fusarium culmorum,≥ 80%
same,inhibition of growth at 200 ppm,[5],≥ 80%
same,inhibition of growth at 200 ppm,Pythium ultimum [6],≥ 80%
same,pest or weed control at 60 ppm,Alternaria solani,≥ 60%
same,pest or weed control at 20 ppm,Pythium ultimum [7],≥ 50%
same,control on Pseudoperonospora cubensis,[8],at least 50%
same,pest or weed control at 200 g/100 kg seeds,Pythium ultimum [9],≥ 50%
"OB1OCc2cc(F)ccc21 [Compound 8, 5-Fluoro-3H-benzo[c][1,2]oxaborol-1-ol]",inhibition of growth at 200 ppm,[1],≥ 80%
same,inhibition of growth at 200 ppm,[2],≥ 80%
same,inhibition of growth at 200 ppm,[3],≥ 80%
same,inhibition of growth at 200 ppm,[4],≥ 80%
same,inhibition of growth at 200 ppm,Fusarium culmorum,≥ 80%
same,inhibition of growth at 200 ppm,[5],≥ 80%
same,inhibition of growth at 200 ppm,Pythium ultimum [6],≥ 80%
same,pest or weed control at 60 ppm,Alternaria solani,≥ 60%
same,pest or weed control at 20 ppm,Pythium ultimum [7],≥ 50%
same,pest or weed control at 200 g/100 kg seeds,Pythium ultimum [9],≥ 50%
"CCC(N)COB1OCc2cc(F)ccc21 (centres unmarked) [Compound 30, 1-(5-Fluoro-3H-benzo[c][1,2]oxaborol-1-yloxymethyl)-propylamine]",inhibition of growth at 200 ppm,[1],≥ 80%
same,inhibition of growth at 200 ppm,[2],≥ 80%
same,inhibition of growth at 200 ppm,[3],≥ 80%
same,inhibition of growth at 200 ppm,[4],≥ 80%
same,inhibition of growth at 200 ppm,Fusarium culmorum,≥ 80%
same,inhibition of growth at 200 ppm,[5],≥ 80%
same,inhibition of growth at 200 ppm,Pythium ultimum [6],≥ 80%
same,pest or weed control at 200 g/100 kg seeds,Pythium ultimum [9],≥ 50%
"NCCCOB1OCc2cc(F)ccc21 [Compound 12, 3-(5-Fluoro-3H-benzo[c][1,2]oxaborol-1-yloxy)-propylamine]",inhibition of growth at 200 ppm,[1],≥ 80%
same,inhibition of growth at 200 ppm,[2],≥ 80%
same,inhibition of growth at 200 ppm,[3],≥ 80%
same,inhibition of growth at 200 ppm,[4],≥ 80%
same,inhibition of growth at 200 ppm,Fusarium culmorum,≥ 80%
same,inhibition of growth at 200 ppm,[5],≥ 80%
same,inhibition of growth at 200 ppm,Pythium ultimum [6],≥ 80%
same,pest or weed control at 20 ppm,Pythium ultimum [7],≥ 50%
same,pest or weed control at 200 g/100 kg seeds,Pythium ultimum [9],≥ 50%
"NCC(=O)OB1OCc2cc(Cl)ccc21 [Compound 9, Amino-acetic acid 5-chloro-3H-benzo[c][1,2]oxaborol-1-yl ester]",inhibition of growth at 200 ppm,[1],≥ 80%
same,inhibition of growth at 200 ppm,[2],≥ 80%
same,inhibition of growth at 200 ppm,[4],≥ 80%
same,inhibition of growth at 200 ppm,Fusarium culmorum,≥ 80%
same,inhibition of growth at 200 ppm,[5],≥ 80%
same,inhibition of growth at 200 ppm,Pythium ultimum [6],≥ 80%
same,pest or weed control at 20 ppm,Pythium ultimum [7],≥ 50%
"CNCCOB1OCc2cc(Cl)ccc21 [Compound 4, [2-(5-Chloro-3H-benzo[c][1,2]oxaborol-1-yloxy)-ethyl]-methyl-amine]",inhibition of growth at 200 ppm,[1],≥ 80%
same,inhibition of growth at 200 ppm,[2],≥ 80%
same,inhibition of growth at 200 ppm,[3],≥ 80%
same,inhibition of growth at 200 ppm,[4],≥ 80%
same,inhibition of growth at 200 ppm,Fusarium culmorum,≥ 80%
same,inhibition of growth at 200 ppm,[5],≥ 80%
same,inhibition of growth at 200 ppm,Pythium ultimum [6],≥ 80%
same,pest or weed control at 20 ppm,Pythium ultimum [7],≥ 50%
"CCC(N)COB1OCc2cc(Cl)ccc21 (centres unmarked) [Compound 2, 1-(5-Chloro-3H-benzo[c][1,2]oxaborol-1-yloxymethyl)-propylamine]",inhibition of growth at 200 ppm,[1],≥ 80%
same,inhibition of growth at 200 ppm,[2],≥ 80%
same,inhibition of growth at 200 ppm,[3],≥ 80%
same,inhibition of growth at 200 ppm,[4],≥ 80%
same,inhibition of growth at 200 ppm,Fusarium culmorum,≥ 80%
same,inhibition of growth at 200 ppm,[5],≥ 80%
same,inhibition of growth at 200 ppm,Pythium ultimum [6],≥ 80%
same,pest or weed control at 60 ppm,Alternaria solani,≥ 60%
same,pest or weed control at 20 ppm,Pythium ultimum [7],≥ 50%
same,pest or weed control at 200 g/100 kg seeds,Pythium ultimum [9],≥ 50%
"NCCCCOB1OCc2cc(F)ccc21 [Compound 13, 4-(5-Fluoro-3H-benzo[c][1,2]oxaborol-1-yloxy)-butylamine]",inhibition of growth at 200 ppm,[1],≥ 80%
same,inhibition of growth at 200 ppm,[2],≥ 80%
same,inhibition of growth at 200 ppm,[3],≥ 80%
same,inhibition of growth at 200 ppm,[4],≥ 80%
same,inhibition of growth at 200 ppm,Fusarium culmorum,≥ 80%
same,inhibition of growth at 200 ppm,[5],≥ 80%
same,inhibition of growth at 200 ppm,Pythium ultimum [6],≥ 80%
same,pest or weed control at 200 g/100 kg seeds,Pythium ultimum [9],≥ 50%
"CCC(CN)OB1OCc2cc(Cl)ccc21 (centres unmarked) [Compound 26, 2-(5-Chloro-3H-benzo[c][1,2]oxaborol-1-yloxy)-butylamine]",inhibition of growth at 200 ppm,[1],≥ 80%
same,inhibition of growth at 200 ppm,[2],≥ 80%
same,inhibition of growth at 200 ppm,[3],≥ 80%
same,inhibition of growth at 200 ppm,[4],≥ 80%
same,inhibition of growth at 200 ppm,Fusarium culmorum,≥ 80%
same,inhibition of growth at 200 ppm,[5],≥ 80%
same,inhibition of growth at 200 ppm,Pythium ultimum [6],≥ 80%
same,pest or weed control at 200 g/100 kg seeds,Pythium ultimum [9],≥ 50%
"O=[N+]([O-])c1ccc2c(c1)B(O)OC2 [Compound 7, 6-Nitro-3H-benzo[c][1,2]oxaborol-1-ol]",inhibition of growth at 200 ppm,[2],≥ 80%
same,inhibition of growth at 200 ppm,[4],≥ 80%
same,inhibition of growth at 200 ppm,[5],≥ 80%
same,inhibition of growth at 200 ppm,Pythium ultimum [6],≥ 80%
same,pest or weed control at 60 ppm,Alternaria solani,≥ 60%
same,pest or weed control at 20 ppm,Pythium ultimum [7],≥ 50%
same,control on Puccinia recondita,Puccinia recondita,at least 50%
"NCCCCOB1OCc2cc(Cl)ccc21 [Compound 10, 4-(5-Chloro-3H-benzo[c][1,2]oxaborol-1-yloxy)-butylamine]",inhibition of growth at 200 ppm,[1],≥ 80%
same,inhibition of growth at 200 ppm,[2],≥ 80%
same,inhibition of growth at 200 ppm,[3],≥ 80%
same,inhibition of growth at 200 ppm,[4],≥ 80%
same,inhibition of growth at 200 ppm,Fusarium culmorum,≥ 80%
same,inhibition of growth at 200 ppm,[5],≥ 80%
same,inhibition of growth at 200 ppm,Pythium ultimum [6],≥ 80%
same,pest or weed control at 200 g/100 kg seeds,Pythium ultimum [9],≥ 50%
"OB1OCc2cc(Cl)ccc21 [Compound 1, 5-Chloro-3H-benzo[c][1,2]oxaborol-1-ol]",inhibition of growth at 200 ppm,[1],≥ 80%
same,inhibition of growth at 200 ppm,[2],≥ 80%
same,inhibition of growth at 200 ppm,[3],≥ 80%
same,inhibition of growth at 200 ppm,[4],≥ 80%
same,inhibition of growth at 200 ppm,Fusarium culmorum,≥ 80%
same,inhibition of growth at 200 ppm,[5],≥ 80%
same,inhibition of growth at 200 ppm,Pythium ultimum [6],≥ 80%
same,pest or weed control at 60 ppm,Alternaria solani,≥ 60%
same,pest or weed control at 20 ppm,Pythium ultimum [7],≥ 50%
same,pest or weed control at 200 g/100 kg seeds,Pythium ultimum [9],≥ 50%
